Data from patent publication US4312605A, “Method for grouting joints and/or cracks in sewer conduits” (Hayward Baker Company, priority 1980, dated 1982).

How the values were obtained:
[1] = Gel time of grout mixtures after mixing components A and B; assay type: physicochemical; conditions: used instead of MgA in the monomer composition
Experimental: To 50 parts of each of the stock solutions a, b, c, d, and e, there is added 1.0 part of TEA (95% in water) and to another 50 parts of each of the stock solutions, there is added 2.0 parts of TEA (95% in water). The resulting ten solutions containing TEA, the latter five having twice as much TEA as the first five, are examples of component A that can be mixed with an approximately equal volume of initiator component B which in its simplest make-up consists of a solution in water of ammonium persulfate (AP).
The component B that is used with each of the first five of the TEA/monomer component A solutions is a solution of 2% AP in water, approximately 50 parts of the 2% AP solution being mixed, as at the discharge header of a packer, with 50 parts of the respective component A solution. These first five A and B mixtures when used in the field at about 20° (68° F.) have gel times of about 30 seconds. The component B made up for use with the last group of five TEA/monomer components A is a solution of 4% AP in water. When the latter AP solution is forced at approximately a rate of 50 parts for each 50 parts of a respective one of the last five TEA/monomer component A solutions through separate feed lines to the packer at field temperatures of about 10° (50° F.), the grout mixtures A and B give approximately 30-second gel times.

[2] = 4 to 25% calcium acrylate based on dry soil weight, redox catalyst; U.S. Pat. No. 2,651,619; cited from earlier work
[3] = cited from earlier work
albino rats [4] = assay: Acute toxicity (LD50) of grout monomers; assay type: in vivo; conditions: from LD50 of MBA vs acrylamide
[5] = Precipitation of crosslinker from aqueous monomer solution; assay type: physicochemical; conditions: based on total metal acrylate salt; aqueous monomer solution 20-40% solids, especially if shaken
albino rats [6] = conditions: cited from earlier work

C=CC(=O)O [calcium acrylate (CaA), calcium acrylate]
gel time (in words) [1]: long gel time | compressive strength of stabilized soil [2]: up to 600 psi

C=CC(N)=O [acrylamide]
neurotoxicity (general statement) ([3]; in vivo): a neurotoxic chemical

C=CC(=O)NCNC(=O)C=C [MBA, N,N'-methylenebisacrylamide]
monomer toxicity (factor relative to acrylamide) (albino rats [4]): 1/2 | amount of crosslinker above which it tends to precipitate [5]: about 4 % by weight | LD50 (albino rats [6]): 390 mg/kg | neurotoxicity ([3]; at dose schedules and conditions employed (MRI Project No. 4308-N, page 287)): not neurotoxic
